The results in this text go back to patent US20030232101A1, “Topical formulations of resorcinols and cannibinoids and methods of use” (Immugen Pharmaceuticals, Inc., priority 2002, published 2003).

Holding throughout (type): cell-based
For series [1], the system named is interaction of HIV gp 120 with CD4 (HeLa CD4 LTR β-gal / HL2/3 cell fusion). In words: HeLa CD4 LTR β-gal/HL2/3 HIV-1 fusion assay (Experimental Example 1). The settings on record: fusion assay. The text has this: This assay uses the HeLa CD4 LTR β-gal and HL2-3 cells available from the AIDS Research and Reference Reagent Repository. The fusion assay utilizes HeLa CD4 LTR β-gal cells with HL2/3 cells as a fusion partner via the interaction of HIV gp 120 with CD4. HL2/3 cells express HIV-1 Env on their cell surface and contain an HIV-1 Tat expression cassette. Upon syncytium formation and plasma membrane fusion, cytoplasmic mixing of the HL2/3 and HeLa CD4 LTR b-gal cell contents results in the transactivation of the LTR and β-Galactosidase expression is then directly related to […] cell membrane fusion. Thus, these two mechanistic assays can be used to confirm and identify a virus entry-based target of the compound. Additionally, because the attachment assay uses cell-free virus this assay can be used to show applicability to cell-free virus transmission.
Twenty-four h prior to initiation of the assay cells were trypsinized, counted and 5×10^3 cells placed in a 0.2 cm well in media without selection antibiotics. To initiate the fusion assay HeLa CD4 LTR β-gal (5×10^3 cells per 0.2 cm well) were incubated with compound for 1 h at 37° C. HL2/3 cells (5×10^3) were added to the 0.2 cm well and the incubation continued for 48 h. At 48 h the wells were washed 1 time with PBS and β-galactosidase enzyme expression determined by chemiluminescence per manufacturers instructions (Tropix Gal-screen™, Tropix, Bedford, Mass.). Compound toxicity was monitored on sister plates using MTS dye reduction.
In addition to assessing inhibition of attachment with HeLa CD4 LTR β-gal cells a virus fusion assay was perfoed using HeLa CD4 LTR β-gal and HL2/3 cells. No timed addition of compound was employed, but rather the assay was performed to verify the effects of the compounds on the HeLa CD4 LTR β-gal cells β-galactosidase expression.

For another series, the system named is IIIB strain of HIV-1. In words: Virus attachment assay, HeLa CD4 LTR β-gal cells (Experimental Example 2). The settings on record: Human immunodeficiency virus 1, IIIB, HeLa, read-out: Attachment Assay IC50. The protocol: (§1) This assay detects compounds that block virus attachment using HeLa CD4 LTR β-gal cells. HeLa CD4 LTR β-gal cells were cultured with selection antibiotics. Twenty-four h prior to initiation of the assay, the cells were trypsinized, counted and plated in a 0.2 cm well in media without selection antibiotics. At 24 h media is removed and compound in media placed on the cells and incubated for 15 min at 37° C. A known titer of the IIIB strain of HIV-1 was then added to the wells and the incubation continued for 1 to 2 h. At the end of the incubation the wells were washed 2 times with media and the culture continued for 40 to 48 h. At termination of the assay, media is removed and β-galactosidase enzyme expression determined by chemiluminescence per manufacturer's instructions (Tropix Gal-screen, Bedford Mass.). Compound toxicity is monitored on a sister plate by XTT or MTS dye reduction. All determinations are performed in triplicate with serial_Log10 dilution of the test materials.

Series [2] can be described thus: Compound toxicity in the fusion assay, sister plate, XTT or MTS (Example 2). The following applies: human, HeLa CD4 LTR β-gal cells, read-out: Fusion Assay TC50. As to the method:
The fusion assay assesses the ability of compounds to block cell-to-cell fusion mediated by HIV-1 Env and CD4 expressed on separate cells. This assay is sensitive to inhibitors of both the gp 120/CD4 interaction and inhibitors of the X4 coreceptor. HeLa CD4 LTR β-gal cells were plated in microtiter wells and diluted compounds are added and allowed to incubate at 37° C. for 1 hr prior to the addition of HL2/3 cells. The incubation was then continued for 40 to 48 h, after which fusion is monitored by measurement of β-galactosidase enzyme expression, detectable by chemiluminescence (Tropix Gal-screen, Tropix, Bedford, Mass.). Compound toxicity is monitored on a sister plate using XTT or MTS dye reduction. All determinations are performed in triplicate with serial_Log10 dilution of the test materials.

Series [3] in a line: Compound toxicity in the attachment assay, sister plate, XTT or MTS (Example 2). The settings on record: human, HeLa CD4 LTR β-gal cells, read-out: Attachment Assay TC50. The protocol:
as §1, with “materials. The virus adsorption interval of 1 to 2 h was sufficiently short that AZT, which requires phosphorylation to achieve its active tri-phosphate form (AZT-TTP), is not active in this assay.” for “materials.”

For the next series, the system named is HeLa CD4 LTR β-gal cells. The description is as above. As to the method:
as §1, with “materials. The virus adsorption interval of 1 to 2 h was sufficiently short that AZT, which requires phosphorylation to achieve its active tri-phosphate form (AZT-TTP), is not active in this assay.” for “materials.”

Each structure is given as a SMILES string.

For `C=C(C)[C@@H]1CCC(C)=C[C@H]1c1c(O)cc(CCCCC)cc1O` [Cannabidiol, reference compound], the “Comments: suppression of β-galactosidase activity” value (from here on “Comments: suppression”) in series [1] is “Suppression of β-galactosidase”.
`CC1=CCC2C(C1)c1c(O)cc(C(C)(C)CCCC(C)C)cc1OC2(C)C` (stereo not drawn) [IMG509, 3-Norpentyl-3-(1,1,5-trimethylhexyl)-Δ8-tetrahydrocannabinol]: in the series on IIIB strain of HIV-1, the IC50 is 48.4 µM. For the same molecule, in series [1], the “Comments: suppression” value was “Suppression of β-galactosidase”. The CC50 in series [2] was 18.4 µM; in series [3] it was > 10 µM.
In the case of `Cc1c(O)cc(C(C)(C)CCCC(C)C)cc1O` [IMG510, 2-Methyl-5-(1,1,5-trimethylhexyl)resorcinol], the half-maximal inhibitory concentration (IC50) with IIIB strain of HIV-1 was determined as 50.8 µM. The figures for the CC50 in series [2] and in series [3] were > 100 µM and > 10 µM, respectively.
With `Cc1ccc2c(c1)-c1c(O)cc(C(C)(C)CCCC(C)C)cc1OC2(C)C` [IMG511, 3-Norpentyl-3-(1,1,5-trimethylhexyl)cannabinol], in the series with IIIB strain of HIV-1, the concentration for half-maximal inhibition (IC50) turned out to be 46.3 µM. Also, in series [1], the “Comments: suppression” value was “Suppression of β-galactosidase”. The CC50 in series [2] worked out at 20.7 µM. The “Attachment Assay TC50” value in the series with HeLa CD4 LTR β-gal cells was >67 µM.
